*1 amine or outer side, *2 acyl side, *3 side chain or, on linkers, in order; H or OH if unused. Where a SMILES comes first, the peptide text is derived from it. Bridges are numbered along the chain shown (N, C = ends). [ ]: non-standard residue; d: D form. X1 = O=C([C@@H]1C[C@H](n2cc(-c3ccc(-c4cccs4)cc3)nn2)CN1[*:1])[*:2]; Trp(5-Br) = N[C@@H](Cc1c[nH]c2ccc(Br)cc12)C(=O)O; Trp(1-Me) = Cn1cc(C[C@H](N)C(=O)O)c2ccccc21
Target: T1, YU2 gp120 (Human immunodeficiency virus type 1 group M subtype B, UniProt P35961)
T1 construct: The DNA for gp120YU-2 in pcDNA3.1 vector for transient transfection; made in house; host or cells: HEK-293F
Format: binding, HIV-1
Excerpt: A state-of-the-art Biacore S200 SPR optical biosensor, which can resolve dissociation rates of 0.1–1.0 s^−1, was employed to measure the YU2 gp120 binding kinetics of cPT’s. […] The insets in Fig. 3 show the binding isotherms plotted from the binding signals at steady state, as a function of peptide concentration. Reproducibility of the SPR binding assays was verified by running experiments at gp120 densities ranging from 10 to 29 RU/kDa. […] The calculated apparent (KD), the steady state affinities (eq KD) and experimental Rmax or maximum binding capacities for each gp120 surface are reported.
SPR experiments were performed on a Biacore S200 biosensor (Cytiva Global Life Sciences Solutions) at 25°C using PBS-P (10 mM Phosphate, 150 mM NaCl, pH 7.4, 0.005% P-20 and 2 or 5%DMSO) as the running and sample buffers. […] The 9 to 10 cPT concentrations were injected in duplicate spanning 1000-fold (~ 0.001 to 2.0 μM) at a flow rate of 75–100 μL/min where associations were monitored for 3 minutes and the final dissociation phase in running buffer monitored for 5 minutes for complete dissociation or by injecting two 9-second pulses of 10 mM glycine pH 2.0 to remove any bound analyte. […]

Row | Compound | equilibrium binding isotherm KD, fold lower (affinity) versus AAR029N2 (SPR steady state isotherm, Fig. 3C inset) [fold] | increase in dissociation rate relative to parent peptide (SPR, MG-I-13 vs AAR029N2, MG-II-55 vs MG-II-20) [fold]
1 | CC[C@H](C)[C@@H]1NC(=O)[C@H](CC(N)=O)NC(=O)[C@@H](N)CC(=O)NCCCC[C@@H](C(N)=O)NC(=O)[C@H](Cc2cn(C)c3ccccc23)NC(=O)[C@@H]2C[C@H](n3cc(-c4ccc(-c5cccs5)cc4)nn3)CN2C1=O [MG-II-39] (H-DNI[X1][Trp(1-Me)]K-NH2; lactam 1-6; N-terminus and C-terminus assumed) | 5 | –
2 | CC[C@H](C)[C@@H]1NC(=O)[C@H](CC(N)=O)NC(=O)[C@@H](N)CC(=O)NCCCC[C@@H](C(N)=O)NC(=O)[C@H](Cc2c[nH]c3ccc(Br)cc23)NC(=O)[C@@H]2C[C@H](n3cc(-c4ccc(-c5cccs5)cc4)nn3)CN2C1=O [MG-I-13] (H-DNI[X1][Trp(5-Br)]K-NH2; lactam 1-6; N-terminus and C-terminus assumed) | – | 2.5

From PMC10153383, “Pharmacophore Variants of the Macrocyclic Peptide Triazole Inactivator of HIV-1 Env” (Research Square, 2023)
